Data published in PMC6017062, “Probing the Inhibitor versus Chaperone Properties of sp^2-Iminosugars towards Human β-Glucocerebrosidase: A Picomolar Chaperone for Gaucher Disease” (Molecules : A Journal of Synthetic Chemistry and Natural …, 2018).

What was measured:
pKa determination = format: physicochemical
N188S/G183W mutant GCase = target: T1, N188S/G183W mutant GCase (Homo sapiens, UniProt P04062, N227S); assay: Chaperone test in N188S/G183W type 3 Gaucher patient fibroblasts; format: cell-based
T1 construct: endogenous in cells; host or cells: skin fibroblasts of N188S/G183W type 3 Gaucher patients
T1 sequence (P04062 40-536 N227S): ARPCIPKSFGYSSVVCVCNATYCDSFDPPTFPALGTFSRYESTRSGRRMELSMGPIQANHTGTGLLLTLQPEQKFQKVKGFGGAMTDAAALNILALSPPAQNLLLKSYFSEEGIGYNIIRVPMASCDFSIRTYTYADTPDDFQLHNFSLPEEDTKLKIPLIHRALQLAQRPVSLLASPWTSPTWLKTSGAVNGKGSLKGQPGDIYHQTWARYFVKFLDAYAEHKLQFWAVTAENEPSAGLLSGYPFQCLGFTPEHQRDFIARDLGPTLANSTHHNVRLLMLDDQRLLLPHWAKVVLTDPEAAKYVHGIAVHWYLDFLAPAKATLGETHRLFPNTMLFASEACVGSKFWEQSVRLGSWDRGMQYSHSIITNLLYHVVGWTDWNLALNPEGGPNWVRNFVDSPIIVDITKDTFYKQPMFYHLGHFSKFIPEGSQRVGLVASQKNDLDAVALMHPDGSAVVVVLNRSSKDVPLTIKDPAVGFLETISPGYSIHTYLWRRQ
Text: To test the chaperoning capabilities, Gaucher fibroblasts from patients hosting the adult neuronopathic (type 3) Gaucher disease-associated N188S/G183W mutant GCase were employed. It is worth mentioning that the neuronopathic clinical subtypes of Gaucher disease remain currently at orphan status, given the inability of the recombinant enzyme used in enzyme replacement therapy or the glucosylceramide synthase inhibitor Zavesca® used in substrate reduction therapy to cross the blood–brain barrier. This mutation is located in the catalytic domain (domain III) of GCase and has been previously found to be responsive to sp^2-iminosugar-type chaperones. […] Yet, the activity trend as a function of the chaperone concentration was starkly different between them. Thus, the nonreducing representatives 3 and 4 reached the maximum chaperoning effect at 200 nM and as low as 2 nM concentration, respectively, as compared with 20 and 2 μM for the reducing homologues 1 and 2.
Normal and Gaucher disease patients’ skin fibroblasts were cultured in Dulbecco modified Eagle’s medium (WAKO, Richmond, VA, USA) supplemented with 10% fetal bovine serum (Nichirei Biosci. Inc., Tokyo, Japan) at 37 °C in 5% CO2. For measurement of chaperone activities, fibroblasts were plated onto 35 mm dishes at 50,000 cells per dish. After 24 h incubation, the medium with the indicated concentrations of compound was applied and cells were cultured for 96 h. Then, the lysates in 0.1% Triton-X100/distilled H2O were collected from the cells and assayed for lysosomal GCase as described above. To measure the cytotoxic effect of the compounds, normal human fibroblasts were plated onto 35 mm dishes at 15,000 cells per dish and incubated overnight. Then, the medium was changed with or without compounds. After 24 h incubation, the supernatant of the cells was collected and measured by the lactate dehydrogenase assay (WAKO, Richmond, VA, USA). All the cell lines used were tested for mycoplasma contamination before conducting the chaperone and toxicity assays.

isomaltase (α-Glcase2) = target: T2, isomaltase (α-Glcase2) (Saccharomyces cerevisiae, UniProt P53051); assay: Commercial glycosidase inhibition: isomaltase (α-Glcase2); format: biochemical; details: mean ± SD, three determinations; competitive; n.i. = no inhibition detected at 1 mM
T2 construct: purchased
Text: We first evaluated the inhibitory properties of the new nonreducing mono- and bicyclic sp^2-iminosugars 4–15 against a panel of commercial glycosidases that included the α-glucosidases maltase (yeast maltase; α-Glcase1) and isomaltase (α-Glcase2) from Saccharomyces cerevisiae and amyloglucosidase (α-Glcase3) from Aspergillus niger, the β-glucosidases from almonds (β-Glcase1) and bovine liver (β-Glcase2), the α-galactosidase from green coffee beans (α-Galase), the β-galactosidase from Escherichia coli (β-Galase), and the α-mannosidase from Jack bean (α-Manase).
Inhibition constant (Ki) values were determined by spectrophotometrically measuring the residual hydrolytic activities of the glycosidases against the respective o- (for β-galactosidase from E. coli) or p-nitrophenyl α- or β-D-glycopyranoside (for other glycosidases) in the presence of the iminosugars. Each assay was performed in phosphate buffer or phosphate-citrate buffer (for α- or β-mannosidase and amyloglucosidase) at the optimal pH for the enzymes. The reactions were initiated by addition of the enzyme to a solution of the substrate in the absence or presence of various inhibitor concentrations. The mixture was incubated for 10–30 min at 37 °C or 55 °C (for amyloglucosidase) and the reaction was quenched by addition of 1 M Na2CO3. Reaction times were appropriate to obtain 10–20% conversion of the substrate in order to achieve linear rates. The absorbance of the resulting mixture was determined at 405 nm. Approximate value of Ki was determined from the slope of Dixon plots using a fixed concentration of substrate (around the Km value for the different glycosidases) and various concentrations of inhibitor. Full Ki determinations and enzyme inhibition mode were determined from the slope of Lineweaver–Burk plots and double reciprocal analysis.

[1] = N188S/G183W Gaucher fibroblasts

T2 sequence (P53051 whole entry): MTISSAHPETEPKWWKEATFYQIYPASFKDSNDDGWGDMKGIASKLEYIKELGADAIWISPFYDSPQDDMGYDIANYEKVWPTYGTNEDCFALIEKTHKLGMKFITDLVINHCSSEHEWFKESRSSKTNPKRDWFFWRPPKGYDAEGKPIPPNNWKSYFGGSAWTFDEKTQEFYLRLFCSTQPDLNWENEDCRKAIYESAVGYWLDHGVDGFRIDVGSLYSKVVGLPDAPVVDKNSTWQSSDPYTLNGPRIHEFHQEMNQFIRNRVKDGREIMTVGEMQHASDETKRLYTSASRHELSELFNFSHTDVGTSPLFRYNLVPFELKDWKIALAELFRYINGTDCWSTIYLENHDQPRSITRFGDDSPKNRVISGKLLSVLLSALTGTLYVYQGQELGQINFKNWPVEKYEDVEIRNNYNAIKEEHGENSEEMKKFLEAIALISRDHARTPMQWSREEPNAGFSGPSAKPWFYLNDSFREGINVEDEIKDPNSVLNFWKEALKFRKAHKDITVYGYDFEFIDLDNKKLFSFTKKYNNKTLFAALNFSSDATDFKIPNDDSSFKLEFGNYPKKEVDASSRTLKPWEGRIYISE

Compound: CCCCCCCCN=C1SCC2C(O)C(O)C(O)CN12 (stereo not drawn) [Compound 4, 1-Deoxy-6-thio-5-N,6-S-(N′-octyliminomethylidene)nojirimycin]
- pKa (pKa determination): 8.3
- N188S/G183W GCase activity enhancement at 20 pM (N188S/G183W mutant GCase; 20 pM, patient fibroblasts): over 70%
- N188S/G183W GCase activity enhancement at 2 nM (N188S/G183W mutant GCase; 2 nM, patient fibroblasts): 300%
- concentration of maximum chaperoning effect (N188S/G183W mutant GCase; [1]): 2 nM
- concentration over which chaperone/inhibitor balance is unfavorable (net decrease in mutant enzyme activity vs control) (N188S/G183W mutant GCase; [1]): > 0.2 µM
- Ki α-Glcase2 (isomaltase (α-Glcase2)): n.i.
